Assay results as given in article PMC6170196 (Clinical pharmacology and therapeutics, 2012).
Where two headings read alike, the source gives them in different places. Marks after values point to notes of the source that are not given here.

Type: in vivo, human
Conditions: flurbiprofen 100 mg oral, n=12
[1] = arithmetic mean, Fluconazole/ placebo
[2] = arithmetic mean, Pom extract/ placebo
[3] = arithmetic mean, Pom juice/ placebo
[4] = geometric mean, Fluconazole/ placebo
[5] = geometric mean, Pom extract/ placebo
[6] = geometric mean, Pom juice/ placebo

- Cmax ratio [1]: 1.57 ^*
- Total AUC ratio [1]: 2.04 ^*
- Cmax ratio [2]: 1.08
- Total AUC ratio [2]: 1.09
- Cmax ratio [3]: 1.09
- Total AUC ratio [3]: 1.08
- Cmax ratio [4]: 1.47
- Total AUC ratio [4]: 1.97
- Cmax ratio [5]: 1.03
- Total AUC ratio [5]: 1.06
- Cmax ratio [6]: 1.03
- Total AUC ratio [6]: 1.05
SMILES: CC(C(=O)O)c1ccc(-c2ccccc2)c(F)c1 (stereo not drawn) [FLURBIPROFEN, Flurbiprofen]
